Broadly, the half-life is the time in which the quantity being followed falls by half. A low value points to fast loss. As usually defined, the Tmax is the time from dosing to the highest level.

Structures are written as SMILES.

Data on one compound can be found in patent US20250339391A1, “METHODS FOR EFFECTIVE MANAGEMENT OF PAIN” (South Rampart Pharma, Inc., priority 2024, published 2025).

Data set [1] concerns Salmonella typhimurium strains and Escherichia coli strain WP2 uvrA. The experiment in a line: Ames reverse mutation assay. It is filed as cell-based. As to the method:
To further evaluate the potential genotoxicity of SRP-001 and determine the validity of the in vitro findings, a second in vivo assay, a GLP-compliant Comet assay, was conducted in accordance with ICH S2(R1) Guidance on Genotoxicity Testing and Data Interpretation for Pharmaceuticals Intended for Human Use. […] SRP-001 was tested to evaluate its mutagenic potential by measuring its ability to induce reverse mutations at selected loci of several strains of Salmonella typhimurium (S. typhimurium) and at the tryptophan locus of Escherichia coli (E. coli) strain WP2 uvrA in the presence and absence of an exogenous metabolic activation system (Bioreliance, Rockville, MD USA). Dimethyl sulfoxide (10% DMSO) was used as the vehicle. The dose levels tested in the preliminary toxicity assay were 6.67, 10.0, 33.3, 66.7, 100, 333, 667, 1000, 3333, and 5000 μg per plate. No precipitate was observed. […] The dose levels tested in the mutagenicity assay were 100, 333, 667, 1000, 3333, and 5000 μg per plate. […] In the preliminary toxicity assay, the doses tested ranged from 0.0405 to 405 μg/mL (1 mM), which was the limit dose for this assay (Bioreliance, Rockville, MD USA).

A further data set concerns male Sprague-Dawley rats. The following applies: rat, in vivo. The protocol: 1) Dose-Range-Finding Oral Toxicity Study with SRP-001 in Sprague-Dawley Rats (non-GLP) As part of a two-phase study, the maximum tolerated dose (MTD) of SRP-001 when administered via gavage once to Sprague-Dawley Rats using an ascending/descending dose design (Calvert Labs/Altasciences, Scott Township, PA USA). A total of 12 male Sprague-Dawley rats (3/dose group), approximately 8-9 weeks old and weighing 245-307 g, were administered single doses of […], 1000, 1500, or 2000 mg/kg SRP-001. Mortality/morbidity was performed twice daily and once prior to scheduled sacrifice. Clinical observations were evaluated prior to each dose administration and approximately 1-3 h post-dose, once daily on non-dosing days and additionally as needed. Body weights were recorded for animals in Groups 1-4 prior to randomization/selection, each dose administration, and scheduled sacrifice on day 3. Food consumption was recorded on day 3. […] Based on the results of this study, doses for the second phase were selected.

Data set [2] relates to Sprague-Dawley rats. The experiment in a line: 5-day repeat-dose oral toxicity and toxicokinetics in Sprague-Dawley rats (non-GLP). It is filed as in vivo, rat. The protocol:
4) A Dose-Range-Finding Oral Toxicity Study with SRP-001 in Sprague-Dawley Rats (Non-GLP) As part of a two-phase study, repeat-dose toxicity and toxicokinetics of SRP-001, when administered via oral gavage once daily to Sprague-Dawley rats for 5 d, was done (Calvert Labs/Altasciences, Scott Township, PA USA). The doses selected for Phase II were based on the results of Phase I. SRP-001 was administered to 20 naïve rats (5/group in Groups 5-8) once daily for 5 days via oral gavage for toxicology evaluation and once to 18 naïve rats (6/group in Groups 9-11) for toxicokinetic evaluation.
Mortality/morbidity was performed twice daily and once prior to sacrifice. Clinical observations were evaluated prior to each dose administration and approximately 1-3 h post-dose for animals in Groups 5-8. Body weights were recorded prior to randomization/selection, prior to dose administration on day 1 for animals in Groups 5-11, and prior to dose administration on day 5 for Groups 5-8. Food consumption was recorded for animals from Groups 5-8 on day 5. Blood for evaluation of hematology, coagulation and clinical chemistry and urine for urinalysis was collected from animals in Groups 5-8 on day 6. All animals in Groups 5-8 were sacrificed on […]. Selected tissues were harvested at necropsy, selected organs weighed, and selected tissues preserved. Blood for toxicokinetic evaluation was collected from animals in Groups 9-11 at selected timepoints on day 1 to ensure comprehensive data capture. These timepoints include 0 hour (pre-dose) and post-dose intervals of 1, 2, 4, 8, and 24 hours on both Day 1 and […] of the study. This schedule allows for a robust assessment of SRP-001's pharmacokinetic profile, including absorption, distribution, metabolism, and excretion and is in line with current FDA-guidelines for GLP studies.

Another data set deals with Beagle dogs. The following applies: dog, in vivo. As to the method:
8) A 28-day Oral Toxicity Study of SRP-001 in Beagle Dogs with a 14-day Recovery (GLP study) SRP-001 was supplied by Olon Ricerca Bioscience as an off-white powder. The test article was then prepared into dosing suspensions for oral administration via gavage (Calvert Labs/Altasciences, Scott Township, PA USA). Thirty-two experimentally naïve Beagle dogs (16 males and 16 females), 8-9 months old and weighing 6.7-10.5 kg for males and females at the outset of the study, were administered 0, 165, 330, or 495 mg/kg/d. Animals were dosed three times daily (3-5 h between doses) for 28 consecutive days. Prior to this dosing schedule, the dosing was initiated with once daily dosing at 0, 100, 300, or 900 mg/kg at a dose volume of 5 to 10 ml/kg. Due to adverse clinical signs noted following dosing of all groups at a dose volume of 10 ml/kg, dosing of the animals was suspended on day 2 for males and day 1 for females. The study was restarted with T.I.D. dosing in lower dose volume to reduce vehicle-related toxicity.
In-life data from the initial start of the study using once daily dosing were not included in the report but are maintained in the study file. Following the restart of the study, the study was conducted as follows. Mortality/morbidity was performed twice daily and once prior to the scheduled sacrifice. Animals were observed prior to each dose administration and 1-3 h after each dose administration. Animals were also observed once daily on non-dosing days and once prior to scheduled sacrifice. Body weights were recorded prior to randomization/selection, prior to the first dose administration on day 1 and weekly thereafter. Food consumption was determined daily. Ophthalmology examinations and electrocardiograms were performed before treatment initiation and during the last week of dosing. Blood for evaluation of hematology, coagulation and clinical chemistry and urine for urinalysis was collected prior to treatment initiation and on days 29 and 43. Blood for toxicokinetic evaluation was collected at selected timepoints on days 1 and 28. All surviving animals were sacrificed on day 29 or day 43. Selected tissues were harvested at necropsy, selected organs weighed, and selected tissues evaluated microscopically.

In data set [3] the test system is Sprague-Dawley rats. The experiment in a line: CFA inflammatory pain / von Frey with electronic detection (eVF). It is filed as in vivo, rat. The following applies: behavioral assays.

As to `CCN(CC)C(=O)c1ccccc1S(=O)(=O)NCC(=O)Nc1ccc(O)cc1` [SRP-001, N,N-diethyl-2-[[2-(4-hydroxyanilino)-2-oxo-ethyl]sulfamoyl]benzamide], the “mutagenic response (reverse mutations)” value in data set [1] (100-5000 μg per plate, with and without S9) is “No positive mutagenic responses were observed”. For the same compound, in data set [1] (mutagenicity assay, up to 5000 μg per plate), the precipitate and toxicity result was “Neither precipitate nor toxicity was observed”. The “dose with toxicity (reduction in the revertant count)” value in data set [1] (preliminary toxicity assay, TA1537 and WP2 uvrA, absence of S9) is given as 5000 μg per plate. Moreover, the “clinical observations after single dose” value in the data set with male Sprague-Dawley rats is recorded as “Nearly all the animals appeared normal following dosing”. Moreover, the “mortality after single doses” value in the data set on male Sprague-Dawley rats is reported as “did not result in any mortality”. The “liver weights and cholesterol” value in the data set on Sprague-Dawley rats [2] (5 days oral gavage) was “increases in absolute and relative liver weights and increased cholesterol levels”. Further, the tolerated dose with Sprague-Dawley rats [2] (Sprague-Dawley, rat, in vivo, 5 d) amounted to 1200 mg/kg. In addition, the “AUC and Cmax levels” value with Sprague-Dawley rats [2] (day 1 toxicokinetics) is “increased in a dose-dependent manner”. Moreover, the half-life in the data set with Sprague-Dawley rats [2] (high dose) is on record as 6.86 h; in the data set on Sprague-Dawley rats [2] (mid dose) it was 6.19 h. Moreover, the Tmax worked out at 3 h in the data set with Sprague-Dawley rats [2] (low dose); 4.5 h with Sprague-Dawley rats [2] (mid and high doses). The “reversibility after 14-d recovery” value in the data set on Beagle dogs (both, Beagle, 14 d) is “nearly all SRP-001-related changes observed on day 29 were reversible”. The no-adverse-effect level in the data set with Beagle dogs (both, Beagle, 28 d) amounted to 330 mg/kg/day. The “doses without treatment-related adverse effects” value in the data set on Beagle dogs (both, Beagle, po, 28 d) is on record as “up to 330 mg/kg/day”. Besides, the hematology finding entry in the data set with Beagle dogs was “regenerative anemia”. For the same compound, the “locomotor activity or motor incoordination” value with Sprague-Dawley rats [3] is reported as “no overt alterations”.
